Article PMC5513037, “Examining the influence of specificity ligands and ATP-competitive ligands on the overall effectiveness of bivalent kinase inhibitors” (Proteome Science, 2017)

How the values were obtained:
Test in all cases: KAM-matrix competition in K562 lysate;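 on 0.001 uM KAM: median log10 fold change of treatment over DMSO control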;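 on 0.01 uM KAM: median log10 fold change of treatment over DMSO control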;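 on 0.1 uM KAM: median log10 fold change of treatment over DMSO control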;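 on 1 uM KAM: median log10 fold change of treatment over DMSO control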;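 on 10 uM KAM: median log10 fold change of treatment over DMSO control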
Format in all cases: binding
LATS1 = target: T1, LATS1 (Homo sapiens, UniProt O95835)
T1 construct: endogenous in cells; host or cells: K562
T1 sequence (O95835 1-1130): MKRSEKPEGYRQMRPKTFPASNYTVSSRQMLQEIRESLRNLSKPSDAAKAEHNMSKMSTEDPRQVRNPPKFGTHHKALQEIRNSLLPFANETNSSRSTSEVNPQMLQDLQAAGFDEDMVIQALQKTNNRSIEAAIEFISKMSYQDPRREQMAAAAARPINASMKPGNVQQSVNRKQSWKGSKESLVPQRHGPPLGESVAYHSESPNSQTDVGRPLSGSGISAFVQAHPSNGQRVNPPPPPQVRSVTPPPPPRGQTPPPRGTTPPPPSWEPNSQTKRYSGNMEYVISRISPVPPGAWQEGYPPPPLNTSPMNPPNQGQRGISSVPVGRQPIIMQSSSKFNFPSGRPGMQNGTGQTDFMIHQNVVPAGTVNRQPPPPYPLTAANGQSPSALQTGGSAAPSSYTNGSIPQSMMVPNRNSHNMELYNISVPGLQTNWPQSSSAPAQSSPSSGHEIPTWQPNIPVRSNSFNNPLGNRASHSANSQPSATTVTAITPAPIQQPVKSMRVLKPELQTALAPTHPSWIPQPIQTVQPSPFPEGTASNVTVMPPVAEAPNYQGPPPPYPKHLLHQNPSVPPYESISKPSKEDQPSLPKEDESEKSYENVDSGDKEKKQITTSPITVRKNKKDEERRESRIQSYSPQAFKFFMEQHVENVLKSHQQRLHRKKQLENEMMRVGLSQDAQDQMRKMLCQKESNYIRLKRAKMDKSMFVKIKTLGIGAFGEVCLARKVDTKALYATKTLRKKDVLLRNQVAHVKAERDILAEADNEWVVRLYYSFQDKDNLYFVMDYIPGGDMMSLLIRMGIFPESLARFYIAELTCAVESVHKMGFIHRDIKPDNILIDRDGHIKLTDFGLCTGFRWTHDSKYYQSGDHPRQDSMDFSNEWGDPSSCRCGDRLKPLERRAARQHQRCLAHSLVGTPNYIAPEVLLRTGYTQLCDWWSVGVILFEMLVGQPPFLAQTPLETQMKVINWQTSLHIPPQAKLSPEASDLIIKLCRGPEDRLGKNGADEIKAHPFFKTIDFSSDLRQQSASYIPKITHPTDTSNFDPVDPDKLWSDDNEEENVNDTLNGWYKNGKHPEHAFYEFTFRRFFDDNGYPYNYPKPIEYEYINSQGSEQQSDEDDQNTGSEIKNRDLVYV
Protocol: (§1) Supplement 12953_2017_125_MOESM1_ESM.zip/MS_Supp Info.xlsx, sheet "KAM" | column: 10 uM KAM; 1 uM KAM; 0.1 uM KAM; 0.01 uM KAM; 0.001 uM KAM; RB50

PAK6 = target: T2, PAK6 (Homo sapiens, UniProt Q9NQU5)
T2 construct: endogenous in cells; host or cells: K562
T2 sequence (Q9NQU5 whole entry): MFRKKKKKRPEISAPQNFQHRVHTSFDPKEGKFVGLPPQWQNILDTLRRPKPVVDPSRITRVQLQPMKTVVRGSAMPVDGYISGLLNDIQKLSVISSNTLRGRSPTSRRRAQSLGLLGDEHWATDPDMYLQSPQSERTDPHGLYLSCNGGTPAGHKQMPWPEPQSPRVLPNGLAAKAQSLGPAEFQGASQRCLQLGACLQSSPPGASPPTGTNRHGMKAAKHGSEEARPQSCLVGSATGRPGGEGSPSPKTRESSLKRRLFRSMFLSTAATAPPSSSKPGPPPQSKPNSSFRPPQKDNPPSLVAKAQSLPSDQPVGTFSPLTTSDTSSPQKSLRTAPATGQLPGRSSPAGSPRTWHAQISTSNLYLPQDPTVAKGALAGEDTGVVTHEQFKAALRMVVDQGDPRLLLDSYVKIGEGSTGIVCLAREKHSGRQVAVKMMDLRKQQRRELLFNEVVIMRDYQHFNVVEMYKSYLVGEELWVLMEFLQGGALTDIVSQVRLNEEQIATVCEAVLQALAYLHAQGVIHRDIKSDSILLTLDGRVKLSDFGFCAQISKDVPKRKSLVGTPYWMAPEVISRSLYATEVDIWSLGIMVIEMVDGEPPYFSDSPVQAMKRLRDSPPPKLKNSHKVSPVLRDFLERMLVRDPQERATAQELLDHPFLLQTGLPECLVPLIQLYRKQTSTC
Protocol: as §1

PDPK1 = target: T3, PDPK1 (Homo sapiens, UniProt O15530);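 on 0.001 uM KAM: median log10 fold change of treatment over DMSO control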;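 on 0.01 uM KAM: median log10 fold change of treatment over DMSO control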;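 on 0.1 uM KAM: median log10 fold change of treatment over DMSO control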;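 on 1 uM KAM: median log10 fold change of treatment over DMSO control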;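 on 10 uM KAM: median log10 fold change of treatment over DMSO control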
T3 construct: endogenous in cells; host or cells: K562
T3 sequence (O15530 1-556): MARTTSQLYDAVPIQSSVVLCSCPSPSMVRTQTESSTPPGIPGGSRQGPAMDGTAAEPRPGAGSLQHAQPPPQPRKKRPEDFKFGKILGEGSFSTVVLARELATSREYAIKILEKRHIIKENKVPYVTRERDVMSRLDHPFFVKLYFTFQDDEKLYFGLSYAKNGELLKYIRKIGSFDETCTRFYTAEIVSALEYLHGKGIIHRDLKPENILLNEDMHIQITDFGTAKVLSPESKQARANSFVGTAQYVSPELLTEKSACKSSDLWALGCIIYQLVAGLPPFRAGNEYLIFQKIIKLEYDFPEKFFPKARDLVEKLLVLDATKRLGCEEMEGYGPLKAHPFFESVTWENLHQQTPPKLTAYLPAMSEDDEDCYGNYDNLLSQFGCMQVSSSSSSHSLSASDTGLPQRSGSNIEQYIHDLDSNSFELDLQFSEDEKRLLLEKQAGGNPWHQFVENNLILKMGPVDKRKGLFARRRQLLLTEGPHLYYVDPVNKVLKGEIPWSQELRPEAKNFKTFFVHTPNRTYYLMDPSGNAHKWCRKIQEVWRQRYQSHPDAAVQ
Protocol: as §1

PTK2 = target: T4, PTK2 (Homo sapiens, UniProt Q05397)
T4 construct: endogenous in cells; host or cells: K562
T4 sequence (Q05397 whole entry): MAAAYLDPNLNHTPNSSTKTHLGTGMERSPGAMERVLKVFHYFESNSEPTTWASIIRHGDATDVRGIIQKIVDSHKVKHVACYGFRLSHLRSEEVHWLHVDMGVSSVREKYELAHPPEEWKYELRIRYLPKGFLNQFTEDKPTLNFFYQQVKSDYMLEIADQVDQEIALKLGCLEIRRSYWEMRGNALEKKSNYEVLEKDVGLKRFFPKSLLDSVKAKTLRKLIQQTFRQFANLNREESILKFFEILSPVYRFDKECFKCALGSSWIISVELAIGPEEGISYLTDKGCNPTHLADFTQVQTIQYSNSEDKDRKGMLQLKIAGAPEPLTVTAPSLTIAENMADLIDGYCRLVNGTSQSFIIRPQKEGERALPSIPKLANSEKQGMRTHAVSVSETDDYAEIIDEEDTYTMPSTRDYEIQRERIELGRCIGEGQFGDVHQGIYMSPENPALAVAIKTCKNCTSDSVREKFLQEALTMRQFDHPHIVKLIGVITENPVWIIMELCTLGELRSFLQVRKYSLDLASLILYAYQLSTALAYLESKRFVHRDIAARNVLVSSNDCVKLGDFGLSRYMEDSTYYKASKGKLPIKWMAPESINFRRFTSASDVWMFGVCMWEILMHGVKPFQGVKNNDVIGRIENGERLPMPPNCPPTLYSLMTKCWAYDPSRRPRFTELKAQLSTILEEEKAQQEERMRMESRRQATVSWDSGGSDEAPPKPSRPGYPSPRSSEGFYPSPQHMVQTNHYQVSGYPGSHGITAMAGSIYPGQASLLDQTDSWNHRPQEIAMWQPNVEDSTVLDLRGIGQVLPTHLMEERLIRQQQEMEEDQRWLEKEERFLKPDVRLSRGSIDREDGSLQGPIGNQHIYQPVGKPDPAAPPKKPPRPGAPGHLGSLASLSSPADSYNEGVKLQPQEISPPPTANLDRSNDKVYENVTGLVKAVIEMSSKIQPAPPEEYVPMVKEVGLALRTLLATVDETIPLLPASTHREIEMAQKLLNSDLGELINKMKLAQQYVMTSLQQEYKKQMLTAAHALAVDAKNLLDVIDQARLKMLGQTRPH
Protocol: as §1

RIPK1 = target: T5, RIPK1 (Homo sapiens, UniProt Q13546);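 on 0.001 uM KAM: median log10 fold change of treatment over DMSO control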;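 on 0.01 uM KAM: median log10 fold change of treatment over DMSO control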;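 on 0.1 uM KAM: median log10 fold change of treatment over DMSO control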;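 on 1 uM KAM: median log10 fold change of treatment over DMSO control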;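 on 10 uM KAM: median log10 fold change of treatment over DMSO control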
T5 construct: endogenous in cells; host or cells: K562
T5 sequence (Q13546 1-671): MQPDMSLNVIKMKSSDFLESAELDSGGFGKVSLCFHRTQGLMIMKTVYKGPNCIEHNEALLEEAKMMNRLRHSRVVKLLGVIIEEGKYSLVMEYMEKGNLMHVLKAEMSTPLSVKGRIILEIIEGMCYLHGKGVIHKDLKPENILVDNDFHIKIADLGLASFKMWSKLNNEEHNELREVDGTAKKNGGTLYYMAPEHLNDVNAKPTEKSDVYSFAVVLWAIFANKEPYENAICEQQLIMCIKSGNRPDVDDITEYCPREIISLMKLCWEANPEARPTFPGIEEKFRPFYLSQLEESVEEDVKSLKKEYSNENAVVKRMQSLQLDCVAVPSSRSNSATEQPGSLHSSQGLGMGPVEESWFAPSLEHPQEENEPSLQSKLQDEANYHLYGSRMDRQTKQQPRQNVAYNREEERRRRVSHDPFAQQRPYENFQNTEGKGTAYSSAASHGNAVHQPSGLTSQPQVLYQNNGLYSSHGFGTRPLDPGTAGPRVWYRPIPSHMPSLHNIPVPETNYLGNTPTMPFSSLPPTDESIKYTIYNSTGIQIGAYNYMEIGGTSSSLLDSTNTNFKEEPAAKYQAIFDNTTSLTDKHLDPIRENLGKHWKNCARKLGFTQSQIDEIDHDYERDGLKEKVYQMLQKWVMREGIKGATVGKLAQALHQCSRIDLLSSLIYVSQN
Protocol: as §1

[1] = read-out: RB50 (the source's name)
[2] = KAM 0.001-10 uM, read-out: RB50 (the source's name)

Structure (SMILES): N#CCc1ccc(Nc2nc(NCCCN)cc(Nc3cc(C4CC4)[nH]n3)n2)cc1 [KAM]
- median Log10 fold change (LATS1; 0.001 uM KAM): -0.01464
- median Log10 fold change (LATS1; 0.01 uM KAM): -0.02487
- median Log10 fold change (LATS1; 0.1 uM KAM): -0.2673
- median Log10 fold change (LATS1; 1 uM KAM): -0.4734
- median Log10 fold change (LATS1; 10 uM KAM): -0.4675
- IC50 (LATS1; [1]): 206 nM
- median Log10 fold change (PAK6; 0.001 uM KAM): -0.09371
- median Log10 fold change (PAK6; 0.01 uM KAM): 0.03145
- median Log10 fold change (PAK6; 0.1 uM KAM): -0.196
- median Log10 fold change (PAK6; 1 uM KAM): -0.3777
- median Log10 fold change (PAK6; 10 uM KAM): -0.6349
- IC50 (PAK6; [1]): 519 nM
- IC50 (PDPK1; [2]): > 10 µM
- 0.001 uM KAM (PDPK1; relative to 0 uM KAM = 0): -0.001927
- 0.01 uM KAM (PDPK1; relative to 0 uM KAM = 0): -0.01199
- 0.1 uM KAM (PDPK1; relative to 0 uM KAM = 0): -0.03413
- 1 uM KAM (PDPK1; relative to 0 uM KAM = 0): -0.1736
- 10 uM KAM (PDPK1; relative to 0 uM KAM = 0): -0.2461
- median Log10 fold change (PTK2; 0.001 uM KAM): 0.001005
- median Log10 fold change (PTK2; 0.01 uM KAM): -0.00785
- median Log10 fold change (PTK2; 0.1 uM KAM): -0.1794
- median Log10 fold change (PTK2; 1 uM KAM): -0.5062
- median Log10 fold change (PTK2; 10 uM KAM): -0.5675
- IC50 (PTK2; [1]): 335 nM
- IC50 (RIPK1; [2]): > 10 µM
- 0.001 uM KAM (RIPK1; relative to 0 uM KAM = 0): -0.02132
- 0.01 uM KAM (RIPK1; relative to 0 uM KAM = 0): 0.0003889
- 0.1 uM KAM (RIPK1; relative to 0 uM KAM = 0): -0.08047
- 1 uM KAM (RIPK1; relative to 0 uM KAM = 0): -0.1016
- 10 uM KAM (RIPK1; relative to 0 uM KAM = 0): -0.1828
